# Results reported in PubChem BioAssay (NCI).
# “And” between values parts separate entries of the source, which are not always exact repeats. Identical values can stand only once.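 Method: 48-hour compound exposure of cells in 96-well plates, five concentrations, linear interpolation of endpoints. GI50 is the concentration that inhibits growth by half. The concentration for full growth arrest is given as TGI.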
# How the values were obtained:
# Experiment in all cases: inhibition of tumour cell growth, NCI panel, 48 h
# LXFL 529 NSCLC = tested on: LXFL 529 NSCLC
# XF 498 CNS = tested on: XF 498 CNS
# SNB-78 CNS = tested on: SNB-78 CNS
# DLD-1 colon = tested on: DLD-1 colon
# DMS 273 small cell lung = tested on: DMS 273 small cell lung
SMILES,TGI (LXFL 529 NSCLC),TGI (XF 498 CNS),TGI (SNB-78 CNS),TGI (DLD-1 colon),TGI (DMS 273 small cell lung),GI50 (LXFL 529 NSCLC) [µM],GI50 (XF 498 CNS) [µM],GI50 (DLD-1 colon) [µM],GI50 (DMS 273 small cell lung) [µM],GI50 (SNB-78 CNS) [µM]
O=c1ncccn1C1C=C(CO)C(O)C1O (configuration not stated),> 50 µM,> 50 µM,> 50 µM,> 50 µM,> 50 µM,–,–,–,–,–
COc1cc2cnc3c4ccccc4ccc3c2cc1OC,> 100 µM,> 100 µM,> 100 µM,> 100 µM,–,–,–,–,–,–
N=S(c1ccccc1)c1ccccc1[N+](=O)[O-] (configuration not stated),30.9 µM,19.6 µM,> 100 µM,46 µM,34.4 µM,–,–,–,–,–
COC1OC(C)C(OCc2ccccc2)C(OS(=O)(=O)c2ccc(C)cc2)C1OS(=O)(=O)c1ccc(C)cc1 (configuration not stated),> 100 µM,–,> 100 µM,> 100 µM,> 100 µM,–,–,–,–,–
CCN(CC)CC(=O)N1CCc2c([nH]c3ccccc23)C1c1cccnc1 (configuration not stated),> 100 µM,> 100 µM,> 100 µM,> 100 µM,> 100 µM,–,–,–,–,–
CCOC(=O)/C(=C/c1cccc(OC)c1)N(CC)CC,> 100 µM,> 100 µM,> 100 µM,–,> 100 µM,–,–,–,–,–
NC(=O)/C=C/C(=O)O,> 5000 µM,–,> 5000 µM,> 5000 µM,> 5000 µM,–,–,–,–,–
COc1ccc(Nc2nc3ccccc3nc2-c2cccs2)cc1,> 100 µM,> 100 µM,> 100 µM,> 100 µM,> 100 µM,–,–,–,–,–
CCOC(=O)C(=O)Nc1ccccc1C(F)(F)F,> 100 µM,> 100 µM,> 100 µM,> 100 µM,> 100 µM,–,–,–,–,–
CC(=O)[CH-]C(C)=O.[CH2-]C.[CH2-]C.[Tl+3],> 100 µM,> 100 µM,–,> 100 µM,> 100 µM,> 100,> 100,> 100,> 100,–
C[n+]1c2ccccc2cc2c(CNC(CCCN=C(N)N)C(=O)O)cccc21 (configuration not stated),2.12 µM and 2.14 µM,3.5 µM and 4.02 µM,7.93 µM and 35.5 µM,1.32 µM and 1.74 µM,8.77 µM and 1.53 µM,0.659,2.46,0.481,0.441,5.8
CCCCCCCCCCCCCC(=O)OCC1OC(=O)CC1O (configuration not stated),> 100 µM,> 100 µM,> 100 µM,> 100 µM,> 100 µM,–,–,–,–,–
CNC(SC)=C1C(=O)OC(C)(C)OC1=O,> 100 µM,> 100 µM,> 100 µM,54.2 µM,> 100 µM,–,–,–,–,–
CC1=C(C(=O)Nc2ccccc2C)C(/C=C/c2ccccc2)C(C(=O)Nc2ccccc2C)=C(C)N1,> 100 µM,> 100 µM,> 100 µM,> 100 µM,> 100 µM,–,–,–,–,–
CC(=O)[O-].CC(=O)[O-].CC(=O)[O-].CC(=O)[O-].[Mo+2].[Mo+2],> 100 µM,–,> 100 µM,> 100 µM,> 100 µM,> 100,–,> 100,> 100,> 100
O=C/C(=C(/Cl)c1ccc(O)cc1)c1ccccc1,59.9 µM,> 45.4 µM,> 82.9 µM,> 60.1 µM,48 µM,–,–,–,–,–
NC(N)=NS(=O)(=O)c1ccc(NC(=O)c2cccc3c(Nc4ccc(S(N)(=O)=O)cc4)c4ccccc4nc23)cc1,> 100 µM,> 100 µM,> 100 µM,> 100 µM,> 100 µM,–,–,–,–,–
